The text below walks through data of patent US20050070461A1, “Means and methods for altering the motility of the gastrointestinal tract” (priority 2002, published 2005).

Each structure is given as a SMILES string.

Series [1] relates to MPO-containing leukocytes in ileal muscularis. The series can be described thus: Leukocyte recruitment / MPO activity in ileal muscularis after intestinal manipulation. The series is classed as in vivo, mice.
Series [2] deals with murine model for postoperative ileus (gastroparesis after intestinal manipulation). The series can be described thus: Gastric emptying by scintigraphic imaging after intestinal manipulation (murine model for postoperative ileus). Type of series: in vivo, mice. Particulars: for gastric emptying rate k / half-emptying time: MAb pre-operative, hexamethonium or guanethidine postoperative injection.

The subject of series [3] is gastric emptying in control mice. The series can be described thus: Gastric emptying in control mice given the anesthetics.

`CN1CCC(=C2c3ccccc3CC(=O)c3sccc32)CC1` [ketotifen]: the “decrease of postoperative recruitment of MPO-containing leukocytes compared to vehicle” value in series [1] (24 hours after IM, ketotifen 10 mg/kg p.o. for five days prior to surgery) came to 45%. Further, the development of gastroparesis entry in series [2] (24 hours after IM) is listed as “could be prevented”.

In the case of `Cc1cccc(C)c1N=C1NCCCS1` [xylazine], the gastric emptying result in series [3] (xylazine 20 mg/kg used alone) is given as “did not alter gastric emptying”.

With `C[N+](C)(C)CCCCCC[N+](C)(C)C` [hexamethonium], the “leukocyte influx / recruitment in ileal muscularis (MPO-staining cells)” value in series [1] (24 hours after IM) is on record as “did not affect”. The “amount of MPO activity in muscularis homogenates” value in series [1] (24 hours after surgery) was “did not affect”. Further, in series [2] (6 hours after IM), the gastroparesis result is on record as “reversed the gastroparesis partially”, the “gastric emptying rate k” value is given as “normalized” and the half-emptying time result was “normalized”. Besides, in series [2] (24 hours after IM), the development of gastroparesis entry is “completely”, the “gastric emptying rate k” value was “normalized” and the half-emptying time result was “normalized”. In series [2] (mice, time not stated), the development of gastroparesis result is “capable of preventing the development of gastroparesis”.

On to `CNC1(c2ccccc2Cl)CCCCC1=O` (stereo not shown) [ketamine], for which the gastric emptying entry in series [3] (xylazine 20 mg/kg in combination ketamine 100 mg/kg) is recorded as “did not alter gastric emptying”.
